According to PMC8467647, “Identification of Small Molecule Inhibitors against Staphylococcus aureus Dihydroorotase via HTS” (International Journal of Molecular Sciences, 2021):
Blank lines part the entries; values can stand above or below the molecule they belong to.

Key:
SaDHOase [1] = molecular target: T1, SaDHOase (Staphylococcus aureus, UniProt Q5HGN1); test: SPR direct binding, steady-state affinity KD determination; conditions: compound alone, immobilized SaDHOase, 25 °C, steady-state affinity fit
T1 construct: The full-length SaDHOase was expressed and purified following the cloning of the SaDHO gene; His-SUMO with HRV 3C protease site (N, cleaved yes); made in house; host or cells: E. coli BL21 (DE3)
T1 sequence (Q5HGN1 1-424): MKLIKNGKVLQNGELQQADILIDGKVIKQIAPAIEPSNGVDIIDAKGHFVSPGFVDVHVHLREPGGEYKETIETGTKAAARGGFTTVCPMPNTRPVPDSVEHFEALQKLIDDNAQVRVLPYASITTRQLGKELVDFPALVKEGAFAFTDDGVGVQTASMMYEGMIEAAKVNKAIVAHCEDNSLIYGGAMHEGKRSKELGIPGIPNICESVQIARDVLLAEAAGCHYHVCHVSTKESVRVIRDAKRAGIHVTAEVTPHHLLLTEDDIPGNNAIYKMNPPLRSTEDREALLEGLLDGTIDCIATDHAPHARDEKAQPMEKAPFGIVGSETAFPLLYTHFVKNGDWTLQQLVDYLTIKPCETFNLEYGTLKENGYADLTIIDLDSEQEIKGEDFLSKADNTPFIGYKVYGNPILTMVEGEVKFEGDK
Description: (§1) The KD was determined using the response units during the equilibration phase of each concentration of the compound. […] In order to determine the mechanism of action, competition SPR studies were done in the presence of high concentration of the substrate Ca-asp (KM = 110 µM) (Figure 3A). Dose-response curve of the tightest binder (5) is shown as an example (Figure 3C).
Purified histidine-tag cleaved DHOase was buffer exchanged to PBS (10 mM phosphate, pH 7.4, 2.7 mM KCl and 137 mM NaCl) for SPR. SPR was performed at 25 °C using a Biacore T200 instrument and a CM5 sensor chip (GE Healthcare). The flow channels were activated by a 1-ethyl-3-(3-dimethylaminopropyl) carbodiimide hydrochloride (EDC)/N-hydroxy succinimide (NHS) mixture. Flow channel 1 was left unmodified as a control. DHOase was diluted in 10 mM sodium acetate (pH 4.0) and immobilized to flow channels 2 and 3 at levels of 8596 RU and 8342 RU, respectively. Fragment solutions at 65 μM and 200 μM were applied to all three channels at a 30 μL/min flow rate. For KD determination, fragment solutions at increasing concentrations (0–400 μM at 2-fold dilution) were applied to all three channels at a 30 μL/min flow rate. The SPR binding buffer was PBS-P supplemented with 2% DMSO and 0.5 mM TCEP. All data was referenced with the blank channel RU values, and the sensorgrams were analyzed using Biacore T200 evaluation software v2.0.3. The response units at each concentration was measured during the equilibration phase for the steady-state affinity fittings.
(§2) For KD determination of analogs, DHOase was immobilized to flow channels 2, 3 and 4 at levels of 10,160 RU, 12,072 RU and 11,358 RU, respectively. 1 mM Ca-asp was additionally added to the binding buffer for a competition SPR. The sensorgrams were analyzed using BiaEvaluation software 2.0.3. All data was referenced to a blank channel RU signal prior to the fitting. The RU difference at each concentration was measured during the binding equilibration phase, and BiaEvaluation software v2.0.3 was used to fit the data to determine KD values. The RU values and corresponding concentrations were plotted using the single hyperbolic Function (1), where y is the response; ymax is the maximum response, and x is the compound concentration. (1) y=ymax·x/(KD+x)

SaDHOase [2] = molecular target: T1, SaDHOase; test: Competition SPR in the presence of 1 mM substrate Ca-asp; type: binding
Description: as §1, §2

[3] = substrate: NC(=O)N[C@@H](CC(=O)O)C(=O)O; test: SaDHOase enzyme activity (substrate KM); type: biochemical, Staphylococcus aureus; conditions: other: substrate of SaDHOase
Description: The full-length SaDHOase was expressed and purified following the cloning of the SaDHO gene according to previously published methods. Purified SaDHOase enzyme activity was measured and confirmed by two methods, one by observing the production of Ca-asp (reverse reaction) at a UV-Vis absorption of 540 nm (TSC-DAMO method) and the other with continuously monitoring reduction of DHO at 230 nm (Figure 1A). Enzyme rates were calculated using the measured slopes, path length of 0.44 cm and the extinction coefficient (ε) of DHO at 230 nm, 1.17 mM^−1 cm^−1 [14].

Kd (SaDHOase [1]): 77 ± 15 µM
Molecule: Cc1ccc(CN2CCCC(O)C2)c(C)c1 (stereo not shown) [Compound 13]

Kd (SaDHOase [1]): 125 ± 20 µM
Molecule: CCc1ccc(CN2CCC(O)CC2)cc1 [Compound 9]

KD (SaDHOase [1]): eliminates all bonding
Kd (SaDHOase [1]): > 400 µM
Molecule: OC1CCN(Cc2cccc(C(F)(F)F)c2)CC1 [Compound 11]

Kd (SaDHOase [1]): 48 ± 24 µM
Molecule: OC1CCN(Cc2ccc(C(F)(F)F)cc2)CC1 [Compound 12]

Kd (SaDHOase [1]): 38 ± 5 µM
Molecule: Cc1cccc(CN2CCCC(CO)C2)c1 (stereo not shown) [Compound 14]

Kd (SaDHOase [1]): 274 µM
Molecule: CCNC(=O)N1CCC(N)CC1 [Compound 4]

Kd (SaDHOase [1]): 11 ± 5 µM
Molecule: Cc1ccc(C)c(CN2CCC(O)CC2)c1 [Compound 8]

Kd (SaDHOase [1]): 156 µM
Molecule: Cc1ccccc1CN1CCCN(C)CC1 [Compound 3]

Kd (SaDHOase [1]): 48 µM
Molecule: Cc1ccc(CN2CCC(O)CC2)cc1 [Compound 5]

Kd (SaDHOase [1]): 90 ± 4 µM
Molecule: OC1CCN(Cc2cccc(Cl)c2Cl)CC1 [Compound 6]

Molecule: Cn1c(SCC#N)nc2ccccc2c1=O [Compound 2]
Kd (SaDHOase [1]): 98 µM
Effect of substrate Ca-asp on binding (mode of binding) (SaDHOase [2]; competition SPR, 1 mM Ca-asp): not affected by Ca-asp presence

KD (SaDHOase [1]): eliminates all bonding
Kd (SaDHOase [1]): > 400 µM
Molecule: Cc1cccc(CN2CCC(O)CC2)c1 [Compound 10]

Kd (SaDHOase [1]): 41 ± 18 µM
Molecule: Cc1ccccc1CN1CCC(O)CC1 [Compound 7]

Molecule: NC1C(=O)Nc2ccc(Br)cc21 (stereo not shown) [Compound 1]
Kd (SaDHOase [1]): 205 µM
Weakening of binding affinity in the presence of 1 mM Ca-asp (SaDHOase [2]; KD with 1 mM Ca-asp vs compound alone): ~ 2.8 fold

B1: SaDHOase (Staphylococcus aureus subsp. aureus COL) (protein)
chain: T1 sequence (Q5HGN1 1-424)
notes: The full-length SaDHOase was expressed and purified following the cloning of the SaDHO gene; His-SUMO with HRV 3C protease site (N, cleaved yes); made in house; host or cells: E. coli BL21 (DE3)
Km [3]: 110 µM
